Assay results taken from patent US20170050957A1, “4-AMINO-6-(HETEROCYCLIC)PICOLINATES AND 6-AMINO-2-(HETEROCYCLIC)PYRIMIDINE-4-CARBOXYLATES AND THEIR USE AS HERBICIDES” (Dow AgroSciences LLC, priority 2013, published 2017).
Read-outs that look alike come from different tables or passages of the source.

Tests used:
[1] = tested on: Key Broadleaf Weed and Crop Species; assay: Post-emergent Test II herbicidal activity (Table 15); type: in vivo; conditions: post-emergence, 336 h, 14 d; for pest or weed control at 35 g/ha: 35 g ai/ha; for pest or weed control at 70 g/ha: 70 g ai/ha; for pest or weed control at 140 g/ha: 140 g ai/ha
In short: (§1)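 Greenhouse-grown seedlings at first/second true leaf receive a track spray at 187 L/ha, using a highest rate plus two-fold serial dilutions down to 1/16×. Watering is by subirrigation to avoid wash-off. Percent injury (0-100) is judged by eye at 14 d against untreated plants.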

[2] = tested on: Key Grass and Sedge Weeds as well as Grass Crops; assay: Post-emergent Test II herbicidal activity (Table 16); type: in vivo; conditions: post-emergence, 336 h, 14 days after application; for pest or weed control at 35 g/ha: 35 g ai/ha; for pest or weed control at 70 g/ha: 70 g ai/ha; for pest or weed control at 140 g/ha: 140 g ai/ha
In short: as §1

[3] = Abutilon theophrasti, velvetleaf (Abutilon theophrasti), read-out: Visual Growth Reduction (%) 14 Days After Application, ABUTH
[4] = Amaranthus retroflexus, redroot pigweed (Amaranthus retroflexus), read-out: Visual Growth Reduction (%) 14 Days After Application, AMARE
[5] = Brassica napus, oilseed rape, canola (Brassica napus), read-out: Visual Growth Reduction (%) 14 Days After Application, BRSNN
[6] = Chenopodium album, lambsquarters (Chenopodium album), read-out: Visual Growth Reduction (%) 14 Days After Application, CHEAL
[7] = Euphorbia heterophylla, wild poinsettia (Euphorbia heterophylla), read-out: Visual Growth Reduction (%) 14 Days After Application, EPHHL
[8] = Helianthus annuus, sunflower (Helianthus annuus), read-out: Visual Growth Reduction (%) 14 Days After Application, HELAN
[9] = Cyperus esculentus, yellow nutsedge (Cyperus esculentus), read-out: Visual Growth Reduction (%) 14 Days After Application CYPES
[10] = Echinochloa crus-galli, barnyardgrass (Echinochloa crus-galli), read-out: Visual Growth Reduction (%) 14 Days After Application ECHCG
[11] = Oryza sativa, rice (Oryza sativa), read-out: Visual Growth Reduction (%) 14 Days After Application ORYSA
[12] = Setaria faberi, giant foxtail (Setaria faberi), read-out: Visual Growth Reduction (%) 14 Days After Application SETFA
[13] = Triticum aestivum, wheat, spring (Triticum aestivum), read-out: Visual Growth Reduction (%) 14 Days After Application TRZAS
[14] = Zea mays, maize, corn (Zea mays), read-out: Visual Growth Reduction (%) 14 Days After Application ZEAMX

| SMILES | melting point [°C] | pest or weed control at 35 g/ha [1, 3] [%] | pest or weed control at 70 g/ha [1, 3] [%] | pest or weed control at 140 g/ha [1, 3] [%] | pest or weed control at 35 g/ha [1, 4] [%] | pest or weed control at 70 g/ha [1, 4] [%] | pest or weed control at 140 g/ha [1, 4] [%] | pest or weed control at 35 g/ha [1, 5] [%] | pest or weed control at 70 g/ha [1, 5] [%] | pest or weed control at 140 g/ha [1, 5] [%] | pest or weed control at 35 g/ha [1, 6] [%] | pest or weed control at 70 g/ha [1, 6] [%] | pest or weed control at 140 g/ha [1, 6] [%] | pest or weed control at 35 g/ha [1, 7] [%] | pest or weed control at 70 g/ha [1, 7] [%] | pest or weed control at 140 g/ha [1, 7] [%] | pest or weed control at 35 g/ha [1, 8] [%] | pest or weed control at 70 g/ha [1, 8] [%] | pest or weed control at 140 g/ha [1, 8] [%] | pest or weed control at 35 g/ha [2, 9] [%] | further results |
| --- | --- | --- | --- | --- | --- | --- | --- | --- | --- | --- | --- | --- | --- | --- | --- | --- | --- | --- | --- | --- | --- |
| Nc1c(F)c(-c2ccc3scnc3c2)nc(C(=O)O)c1Cl [Compound 6.02] | 186 to 187 | 85 to 94 | 85 to 94 | 85 to 94 | 95 to 100 | 95 to 100 | 95 to 100 | 95 to 100 | 95 to 100 | 95 to 100 | 95 to 100 | 95 to 100 | 95 to 100 | 95 to 100 | 95 to 100 | 95 to 100 | 95 to 100 | 95 to 100 | 95 to 100 | 45 to 59 | pest or weed control at 70 g/ha [2, 9]: 45 to 59%; pest or weed control at 140 g/ha [2, 9]: 45 to 59%; pest or weed control at 35 g/ha [2, 10]: 75 to 84%; pest or weed control at 70 g/ha [2, 10]: 75 to 84%; pest or weed control at 140 g/ha [2, 10]: 85 to 94%; pest or weed control at 35 g/ha [2, 11]: 0 to 29%; pest or weed control at 70 g/ha [2, 11]: 0 to 29%; pest or weed control at 140 g/ha [2, 11]: 0 to 29%; pest or weed control at 35 g/ha [2, 12]: 0 to 29%; pest or weed control at 70 g/ha [2, 12]: 45 to 59%; pest or weed control at 140 g/ha [2, 12]: 60 to 74%; pest or weed control at 35 g/ha [2, 13]: 0 to 29%; pest or weed control at 70 g/ha [2, 13]: 0 to 29%; pest or weed control at 140 g/ha [2, 13]: 30 to 44%; pest or weed control at 35 g/ha [2, 14]: 0 to 29%; pest or weed control at 70 g/ha [2, 14]: 0 to 29%; pest or weed control at 140 g/ha [2, 14]: 0 to 29% |
| COC(=O)c1nc(-c2ccc3ncn(C)c3c2)c(F)c(N)c1Cl [Compound 7.02] | 218 to 220 | 0 to 29 | 0 to 29 | 0 to 29 | 0 to 29 | 0 to 29 | 0 to 29 | 0 to 29 | 0 to 29 | 0 to 29 | 0 to 29 | 75 to 84 | 95 to 100 | 0 to 29 | 0 to 29 | 0 to 29 | 0 to 29 | 0 to 29 | 0 to 29 | 0 to 29 | pest or weed control at 70 g/ha [2, 9]: 0 to 29%; pest or weed control at 140 g/ha [2, 9]: 0 to 29%; pest or weed control at 35 g/ha [2, 10]: 0 to 29%; pest or weed control at 70 g/ha [2, 10]: 0 to 29%; pest or weed control at 140 g/ha [2, 10]: 0 to 29%; pest or weed control at 35 g/ha [2, 11]: 0 to 29%; pest or weed control at 70 g/ha [2, 11]: 0 to 29%; pest or weed control at 140 g/ha [2, 11]: 0 to 29%; pest or weed control at 35 g/ha [2, 13]: 0 to 29%; pest or weed control at 70 g/ha [2, 13]: 0 to 29%; pest or weed control at 140 g/ha [2, 13]: 0 to 29%; pest or weed control at 35 g/ha [2, 14]: 0 to 29%; pest or weed control at 70 g/ha [2, 14]: 0 to 29%; pest or weed control at 140 g/ha [2, 14]: 0 to 29% |
